Common to all, as to type: cell-based
For experiment [1], the target named is T1, von Hippel-Lindau disease tumor suppressor/SWI/SNF-related matrix-associated actin-dependent regulator of chromatin subfamily A member 2 (Homo sapiens, UniProt P51531+P40337). The experiment is described as follows: PROTAC activity at VHL/C-terminal HiBiT fused SMARCA2 in human HeLa cells assessed as induction of SMARCA2 degradation incubated for 24 hrs by Nano-Glo HiBiT analysis. Background: With HiBiT, luminescence reflects the tagged protein that the partner subunit can reach.
Target sequence in this assay (P51531 whole entry, the tested form may be a part): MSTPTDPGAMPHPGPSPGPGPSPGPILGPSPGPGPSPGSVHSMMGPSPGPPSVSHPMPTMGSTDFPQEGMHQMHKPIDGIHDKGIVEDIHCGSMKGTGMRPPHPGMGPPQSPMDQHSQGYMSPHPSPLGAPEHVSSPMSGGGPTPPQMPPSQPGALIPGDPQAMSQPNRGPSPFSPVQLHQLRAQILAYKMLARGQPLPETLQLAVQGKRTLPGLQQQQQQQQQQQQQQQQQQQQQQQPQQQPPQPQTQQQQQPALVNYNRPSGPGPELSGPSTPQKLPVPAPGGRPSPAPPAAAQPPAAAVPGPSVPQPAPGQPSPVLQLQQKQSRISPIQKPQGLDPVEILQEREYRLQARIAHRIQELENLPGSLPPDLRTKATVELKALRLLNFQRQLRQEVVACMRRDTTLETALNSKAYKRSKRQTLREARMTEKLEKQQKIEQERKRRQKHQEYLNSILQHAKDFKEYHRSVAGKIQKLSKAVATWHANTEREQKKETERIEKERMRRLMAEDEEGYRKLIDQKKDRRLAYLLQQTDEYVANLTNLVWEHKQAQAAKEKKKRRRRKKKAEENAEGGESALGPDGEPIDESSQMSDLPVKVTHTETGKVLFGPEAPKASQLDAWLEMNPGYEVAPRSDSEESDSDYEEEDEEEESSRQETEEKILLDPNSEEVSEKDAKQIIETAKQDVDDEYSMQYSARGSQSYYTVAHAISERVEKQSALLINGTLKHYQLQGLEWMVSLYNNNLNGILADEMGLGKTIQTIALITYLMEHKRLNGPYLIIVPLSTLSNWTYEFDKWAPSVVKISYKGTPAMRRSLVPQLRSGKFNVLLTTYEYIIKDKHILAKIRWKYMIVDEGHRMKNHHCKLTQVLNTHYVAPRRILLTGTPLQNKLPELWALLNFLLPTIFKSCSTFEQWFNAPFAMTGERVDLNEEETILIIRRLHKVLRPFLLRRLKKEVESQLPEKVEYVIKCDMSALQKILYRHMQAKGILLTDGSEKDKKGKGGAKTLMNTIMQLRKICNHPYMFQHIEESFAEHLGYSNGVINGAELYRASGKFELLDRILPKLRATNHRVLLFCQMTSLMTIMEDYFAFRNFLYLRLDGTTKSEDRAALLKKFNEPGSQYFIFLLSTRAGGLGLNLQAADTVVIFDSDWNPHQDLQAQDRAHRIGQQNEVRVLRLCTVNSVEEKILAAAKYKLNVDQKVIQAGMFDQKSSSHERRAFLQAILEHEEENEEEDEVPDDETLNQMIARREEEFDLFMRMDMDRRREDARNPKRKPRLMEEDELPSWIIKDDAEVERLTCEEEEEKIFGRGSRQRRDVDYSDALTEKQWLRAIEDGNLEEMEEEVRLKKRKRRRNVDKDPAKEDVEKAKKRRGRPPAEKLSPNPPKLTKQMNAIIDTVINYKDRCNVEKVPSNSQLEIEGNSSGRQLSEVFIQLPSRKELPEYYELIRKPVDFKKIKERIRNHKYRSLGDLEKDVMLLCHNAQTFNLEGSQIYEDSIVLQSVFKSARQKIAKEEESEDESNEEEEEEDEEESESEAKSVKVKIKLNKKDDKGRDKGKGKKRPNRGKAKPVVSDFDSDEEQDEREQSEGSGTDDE
Target sequence in this assay (P40337 whole entry, the tested form may be a part): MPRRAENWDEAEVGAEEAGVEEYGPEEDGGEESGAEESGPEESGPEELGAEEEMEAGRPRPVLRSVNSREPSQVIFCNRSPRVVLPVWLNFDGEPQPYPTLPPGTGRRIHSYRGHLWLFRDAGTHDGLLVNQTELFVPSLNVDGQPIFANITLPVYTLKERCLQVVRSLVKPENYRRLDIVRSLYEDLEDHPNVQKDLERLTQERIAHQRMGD

For experiment [2], the target named is T1, von Hippel-Lindau disease tumor suppressor/SWI/SNF-related matrix-associated actin-dependent regulator of chromatin subfamily A member 2. The experiment is described as follows: PROTAC activity at VHL/C-terminal HiBiT fused SMARCA2 in human HeLa cells assessed as induction of SMARCA2 degradation by measuring maximal efficacy incubated for 24 hrs by Nano-Glo HiBiT analysis relative to control.
Target sequence in this assay (P40337 whole entry, looked up, the tested form may be a part): as the sequence (P40337 whole entry, the tested form may be a part) above
Target sequence in this assay (P51531 whole entry, looked up, the tested form may be a part): as the sequence (P51531 whole entry, the tested form may be a part) above

Experiment [3] addresses T2, von Hippel-Lindau disease tumor suppressor/SWI/SNF-related matrix-associated actin-dependent regulator of chromatin subfamily A member 4 (Homo sapiens, UniProt P51532+P40337). Briefly: PROTAC activity at VHL/C-terminal HiBiT fused SMARCA4 in human HeLa cells assessed as induction of SMARCA4 degradation incubated for 24 hrs by Nano-Glo HiBiT analysis.
Target sequence in this assay (P51532 whole entry, the tested form may be a part): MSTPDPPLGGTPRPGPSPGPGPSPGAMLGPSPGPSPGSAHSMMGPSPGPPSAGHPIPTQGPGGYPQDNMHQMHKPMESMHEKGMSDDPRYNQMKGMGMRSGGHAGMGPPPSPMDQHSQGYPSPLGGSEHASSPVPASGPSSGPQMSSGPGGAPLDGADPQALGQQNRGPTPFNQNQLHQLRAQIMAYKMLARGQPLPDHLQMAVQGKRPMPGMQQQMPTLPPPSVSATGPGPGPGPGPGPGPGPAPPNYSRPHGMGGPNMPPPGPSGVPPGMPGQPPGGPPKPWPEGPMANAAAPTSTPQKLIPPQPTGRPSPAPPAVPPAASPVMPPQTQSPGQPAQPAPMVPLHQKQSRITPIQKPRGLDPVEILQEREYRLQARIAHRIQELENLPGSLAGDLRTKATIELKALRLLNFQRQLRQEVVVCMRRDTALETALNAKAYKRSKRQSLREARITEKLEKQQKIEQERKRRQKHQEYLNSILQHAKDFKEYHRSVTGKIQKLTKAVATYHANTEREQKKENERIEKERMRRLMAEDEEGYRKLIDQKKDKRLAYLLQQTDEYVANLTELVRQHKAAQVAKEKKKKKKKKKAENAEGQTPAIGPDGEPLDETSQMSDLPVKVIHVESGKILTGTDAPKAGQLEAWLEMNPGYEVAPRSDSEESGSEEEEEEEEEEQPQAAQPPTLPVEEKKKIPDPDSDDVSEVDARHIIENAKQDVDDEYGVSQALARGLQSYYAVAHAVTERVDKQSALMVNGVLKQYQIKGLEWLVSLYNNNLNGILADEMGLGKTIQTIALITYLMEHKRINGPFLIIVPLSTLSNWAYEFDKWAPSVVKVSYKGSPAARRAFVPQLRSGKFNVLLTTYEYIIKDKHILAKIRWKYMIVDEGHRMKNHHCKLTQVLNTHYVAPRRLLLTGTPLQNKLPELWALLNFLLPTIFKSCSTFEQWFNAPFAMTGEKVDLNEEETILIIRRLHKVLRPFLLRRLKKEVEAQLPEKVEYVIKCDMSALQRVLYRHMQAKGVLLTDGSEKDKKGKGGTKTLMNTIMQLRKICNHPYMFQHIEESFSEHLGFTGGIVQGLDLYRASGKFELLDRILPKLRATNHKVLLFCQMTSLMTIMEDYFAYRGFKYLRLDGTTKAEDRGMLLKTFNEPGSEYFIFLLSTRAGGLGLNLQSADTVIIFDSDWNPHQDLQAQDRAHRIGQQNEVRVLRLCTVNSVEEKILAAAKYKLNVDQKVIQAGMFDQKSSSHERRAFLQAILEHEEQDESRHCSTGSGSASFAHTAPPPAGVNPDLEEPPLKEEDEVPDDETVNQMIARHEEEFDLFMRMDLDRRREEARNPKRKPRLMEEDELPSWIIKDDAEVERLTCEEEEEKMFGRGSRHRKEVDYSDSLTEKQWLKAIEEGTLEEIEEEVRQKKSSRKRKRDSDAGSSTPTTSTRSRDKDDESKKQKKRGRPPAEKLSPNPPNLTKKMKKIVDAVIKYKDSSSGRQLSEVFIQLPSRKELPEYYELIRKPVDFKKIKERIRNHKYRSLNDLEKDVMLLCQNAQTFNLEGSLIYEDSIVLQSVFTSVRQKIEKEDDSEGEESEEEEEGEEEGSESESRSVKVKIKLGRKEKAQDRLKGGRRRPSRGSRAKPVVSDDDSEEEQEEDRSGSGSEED
Target sequence in this assay (P40337 whole entry, the tested form may be a part): as the sequence (P40337 whole entry, the tested form may be a part) above
Experiment [4] addresses T2, von Hippel-Lindau disease tumor suppressor/SWI/SNF-related matrix-associated actin-dependent regulator of chromatin subfamily A member 4. Briefly: PROTAC activity at VHL/C-terminal HiBiT fused SMARCA4 in human HeLa cells assessed as induction of SMARCA4 degradation by measuring maximal efficacy incubated for 24 hrs by Nano-Glo HiBiT analysis relative to control.
Target sequence in this assay (P40337 whole entry, looked up, the tested form may be a part): as the sequence (P40337 whole entry, the tested form may be a part) above
Target sequence in this assay (P51532 whole entry, looked up, the tested form may be a part): as the sequence (P51532 whole entry, the tested form may be a part) above

A value given as a limit tells only on which side of the number the result lay.

On to `Cc1ncsc1-c1ccc([C@@H](C)NC(=O)[C@H]2C[C@H](O)CN2C(=O)[C@H](NC(=O)C2CCC(N3CCC4(CCC(n5cc(-c6cc(-c7ccccc7O)nnc6N)cn5)CC4)CC3)CC2)C(C)(C)C)cc1` (single isomer, unassigned), for which the DC50 (commonly the concentration giving 50% degradation) in experiment [1] was determined as 34 nM; in experiment [3], 315 nM. Further, the Emax (in general, the maximal effect, on the per cent scale that the assay sets) in experiment [2] was 90%; in experiment [4], 72%.

`Cc1ncsc1-c1ccc([C@H](C)NC(=O)[C@@H]2C[C@@H](O)CN2C(=O)[C@@H](NC(=O)CCCCCCCCCCCn2cc(-c3cc(-c4ccccc4O)nnc3N)cn2)C(C)(C)C)cc1`: the DC50 was 3 nM in experiment [1] and 13 nM in experiment [3]. Also, the figures for the maximal effect (Emax) in experiment [2] and in experiment [4] were 95% and 96%, respectively.

Regarding `Cc1ncsc1-c1ccc([C@H](C)NC(=O)[C@@H]2C[C@@H](O)CN2C(=O)[C@@H](NC(=O)CCCCCCCCn2cc(-c3cc(-c4ccccc4O)nnc3N)cn2)C(C)(C)C)cc1`, the half-maximal degradation concentration (DC50) was determined as 3 nM in experiment [1] and 31 nM in experiment [3]. The maximum response (Emax) stood at 95% in experiment [2] and 93% in experiment [4].

On to `Cc1ncsc1-c1ccc([C@H](C)NC(=O)[C@@H]2C[C@@H](O)CN2C(=O)[C@@H](NC(=O)COCCOCCOCCn2cc(-c3cc(-c4ccccc4O)nnc3N)cn2)C(C)C)cc1`, for which the DC50 in experiment [1] is 455 nM; in experiment [3], greater than 1000 nM. Moreover, the Emax in experiment [2] amounted to 71%; in experiment [4], 47%.

In the case of `Cc1ncsc1-c1ccc([C@H](C)NC(=O)[C@@H]2C[C@@H](O)CN2C(=O)[C@@H](NC(=O)CCN2CCC(CCCn3cc(-c4cc(-c5ccccc5O)nnc4N)cn3)CC2)C(C)C)cc1`, the DC50 in experiment [1] and in experiment [3] was greater than 1000 nM throughout. Moreover, the values for the maximum response (Emax) in experiment [2] and in experiment [4] were 12% and 0%, respectively.

On to `Cc1ncsc1-c1ccc([C@H](C)NC(=O)[C@@H]2C[C@@H](O)CN2C(=O)[C@@H](NC(=O)CCN2CCN(CCCn3cc(-c4cc(-c5ccccc5O)nnc4N)cn3)CC2)C(C)C)cc1`, for which the DC50 in experiment [1] was determined as 682 nM; in experiment [3] it was 585 nM. Besides, the figures for the maximal effect (Emax) in experiment [2] and in experiment [4] were 62% and 76%, respectively.

Turning to `Cc1ncsc1-c1ccc([C@H](C)NC(=O)[C@@H]2C[C@@H](O)CN2C(=O)[C@@H](NC(=O)CCCn2cc(-c3cc(-c4ccccc4O)nnc3N)cn2)C(C)(C)C)cc1`, the half-maximal degradation concentration (DC50) amounted to 132 nM in experiment [1] and 463 nM in experiment [3]. Moreover, the values for the Emax in experiment [2] and in experiment [4] were 88% and 84%, respectively.

As to `Cc1cc([C@H](C(=O)N2C[C@H](O)C[C@H]2C(=O)N[C@@H](CC(=O)NCCCCCCCCCn2cc(-c3cc(-c4ccccc4O)nnc3N)cn2)c2ccc(-c3scnc3C)cc2)C(C)C)on1`, the 50% degradation concentration (DC50) in experiment [1] was 71 nM; in experiment [3] it was 75 nM. The maximum response (Emax) in experiment [2] and in experiment [4] was 94% in each case.

With `Cc1cc([C@H](C(=O)N2C[C@H](O)C[C@H]2C(=O)N[C@@H](CC(=O)NCCCCCCn2cc(-c3cc(-c4ccccc4O)nnc3N)cn2)c2ccc(-c3scnc3C)cc2)C(C)C)on1`, the DC50 in experiment [1] was 18 nM; in experiment [3] it was 213 nM. The results for the maximum response (Emax) in experiment [2] and in experiment [4] were 86% and 84%, respectively.

For the compound `Cc1ncsc1-c1ccc([C@H](C)NC(=O)[C@@H]2C[C@@H](O)CN2C(=O)[C@@H](NC(=O)CCCCCn2cc(-c3cc(-c4ccccc4O)nnc3N)cn2)C(C)(C)C)cc1`, the 50% degradation concentration (DC50) in experiment [1] was 12 nM; in experiment [3], greater than 1000 nM. Also, the Emax turned out to be 93% in experiment [2] and 73% in experiment [4].

On to `Cc1ncsc1-c1ccc([C@H](C)NC(=O)[C@@H]2C[C@@H](O)CN2C(=O)[C@@H](NC(=O)CCCCCCCn2cc(-c3cc(-c4ccccc4O)nnc3N)cn2)C(C)(C)C)cc1`, for which the DC50 was determined as 3 nM in experiment [1] and 23 nM in experiment [3]. The Emax came to 95% in experiment [2] and 90% in experiment [4].

On to `Cc1ncsc1-c1ccc([C@H](C)NC(=O)[C@@H]2C[C@@H](O)CN2C(=O)[C@@H](NC(=O)CCOCCOCCn2cc(-c3cc(-c4ccccc4O)nnc3N)cn2)C(C)C)cc1`, for which the figures for the DC50 in experiment [1] and in experiment [3] were 313 nM and greater than 1000 nM, respectively. Also, the maximal response (Emax) in experiment [2] amounted to 77%; in experiment [4], 59%.
